Results as given in publication PMC4503722, “Novel Phenotypic Outcomes Identified for a Public Collection of Approved Drugs from a Publicly Accessible Panel of Assays” (PLoS ONE, 2015).
pIC50: −log10 of the molar value. Read-outs that look alike come from different tables or passages of the source.

Experiments:
[1] = test system: endothelial tube formation in co-cultures of ECFCs and ADSCs treated with VEGF; experiment: cells; type: cell-based, human; settings: for pIC50: read-out: VEGF_ADSC\ECFC Angio CD31 TubeArea summarized IC50
HeLa cells = experiment: cells; type: cell-based;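 for Hela CellCycMod PI 4N summarized IC50: value tracks stimulation of 4N DNA content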
[2] = test system: ECFC/ADSC co-culture cell nuclei number; settings: for pIC50: read-out: VEGF_ADSC\ECFC Angio Hoechst NucArea summarized IC50
[3] = assay number 14, 2N, read-out: Hela CellCycMod PI 2N summarized IC50
[4] = assay number 16, 4N, read-out: Hela CellCycMod PI 4N summarized IC50
[5] = assay number 17, MI, read-out: Hela CellCycMod PI MI summarized IC50
[6] = assay number 18, cell number, read-out: Hela CellCycMod PI Cell Number summarized IC50
[7] = assay number 15, S phase, read-out: Hela CellCycMod PI S Phase summarized IC50

SMILES	VEGF_ADSC\ECFC Angio CD31 TubeArea IC50/EC50 [1] [µM]	Hela CellCycMod PI 2N IC50/EC50 (HeLa cells; assay number 14, 2N) [µM]	Hela CellCycMod PI 4N IC50/EC50 (HeLa cells; assay number 16, 4N) [µM]	Hela CellCycMod PI MI IC50/EC50 (HeLa cells; assay number 17, MI) [µM]	Hela CellCycMod PI Cell Number IC50/EC50 (HeLa cells; assay number 18, cell number) [µM]	VEGF_ADSC\ECFC Angio Hoechst NucArea IC50/EC50 [2] [µM]	Hela CellCycMod PI S Phase IC50/EC50 (HeLa cells; assay number 15, S phase) [µM]	further results
O=C(O)CCCc1ccc(N(CCCl)CCCl)cc1 [NCGC00015199-20]	–	–	–	–	–	–	–	IC50/EC50, VEGF_ADSC\ECFC Angio CD31 TubeArea (assay number 2) [1]: 1.2446 µM; IC50/EC50, Hela CellCycMod PI 2N (assay number 14) (HeLa cells; 2N): > 10 µM; IC50/EC50, Hela CellCycMod PI 4N (assay number 16) (HeLa cells; 4N): > 10 µM; IC50/EC50, Hela CellCycMod PI Cell Number (assay number 18) (HeLa cells): > 10 µM; IC50/EC50, Hela CellCycMod PI MI (assay number 17) (HeLa cells; MI): > 10 µM; IC50/EC50, Hela CellCycMod PI S Phase (assay number 15) (HeLa cells): 2.1921 µM; IC50/EC50, VEGF_ADSC\ECFC Angio Hoechst NucArea (assay number 3) [2]: > 10 µM
COc1ccc(Cc2nccc3cc(OC)c(OC)cc23)cc1OC [NCGC00015810-12]	–	–	–	–	–	–	–	pIC50 [1]: 5.11; pIC50 (HeLa cells; [3]): < 5.00; pIC50 (HeLa cells; [4]): < 5.00; pIC50 (HeLa cells; [5]): < 5.00; pIC50 (HeLa cells; [6]): < 5.00; pIC50 [2]: < 5.00
COc1ccc2cc3[n+](cc2c1OC)CCc1cc2c(cc1-3)OCO2 [NCGC00016526-07]	2.6815	> 10	> 10	> 10	> 10	> 10	–	–
O=c1[nH]c(=O)n([C@H]2C[C@H](O)[C@@H](CO)O2)cc1Br [NCGC00090770-09]	3.8464	> 10	> 10	> 10	> 10	> 10	> 10	–
CC(=O)Oc1ccccc1C(=O)Nc1ncc([N+](=O)[O-])s1 [NCGC00090774-05]	2.0612	> 10	> 10	> 10	> 10	> 10	> 10	–
O=C1c2c(O)cccc2Cc2cccc(O)c21 [NCGC00091330-07]	–	–	–	–	–	–	–	pIC50 [1]: 6.22; pIC50 (HeLa cells; [3]): < 5.00; pIC50 (HeLa cells; [7]): < 5.00; pIC50 (HeLa cells; [4]): < 5.00; pIC50 (HeLa cells; [5]): < 5.00; pIC50 (HeLa cells; [6]): < 5.00; pIC50 [2]: < 5.00
CN(C)/N=N/c1nc[nH]c1C(N)=O [NCGC00091861-07]	–	–	–	–	–	–	–	IC50/EC50, VEGF_ADSC\ECFC Angio CD31 TubeArea (assay number 2) [1]: 4.5862 µM; IC50/EC50, Hela CellCycMod PI 2N (assay number 14) (HeLa cells; 2N): > 10 µM; IC50/EC50, Hela CellCycMod PI 4N (assay number 16) (HeLa cells; 4N): > 10 µM; IC50/EC50, Hela CellCycMod PI Cell Number (assay number 18) (HeLa cells): > 10 µM; IC50/EC50, Hela CellCycMod PI MI (assay number 17) (HeLa cells; MI): > 10 µM; IC50/EC50, Hela CellCycMod PI S Phase (assay number 15) (HeLa cells): > 10 µM; IC50/EC50, VEGF_ADSC\ECFC Angio Hoechst NucArea (assay number 3) [2]: > 10 µM
O=C(CCBr)N1CCN(C(=O)CCBr)CC1 [NCGC00095048-06]	1.3723	> 10	> 10	> 10	> 10	> 10	> 10	–
C1CN(P2(N3CC3)=NP(N3CC3)(N3CC3)=NP(N3CC3)(N3CC3)=N2)CCO1 (centres unmarked) [NCGC00160420-02]	3.6152	> 10	> 10	> 10	> 10	> 10	> 10	–
COc1ccc(/C=C/C(=O)c2ccc(OC)cc2OC)cc1 [NCGC00160442-03]	6.6604	> 10	> 10	> 10	0.7082	> 10	–	–
COCCOC(=O)C1=C(C)NC(C)=C(C(=O)OC/C=C/c2ccccc2)C1c1cccc([N+](=O)[O-])c1 (centres unmarked) [NCGC00162150-04]	6.4204	> 10	> 10	> 10	> 10	> 10	> 10	–
CCCCCCCCCCCC(=O)[O][Sn]([CH2]CCC)([CH2]CCC)[O]C(=O)CCCCCCCCCCC [NCGC00166115-02]	–	–	–	–	–	–	–	pIC50 [1]: 5.70; pIC50 (HeLa cells; [3]): < 5.00; pIC50 (HeLa cells; [7]): < 5.00; pIC50 (HeLa cells; [4]): < 5.00; pIC50 (HeLa cells; [5]): < 5.00; pIC50 (HeLa cells; [6]): < 5.00; pIC50 [2]: < 5.00
CC(C(O)c1ccccc1)N(C)C/C=C/c1ccccc1 (centres unmarked) [NCGC00249896-01]	> 10	–	–	–	–	> 10	–	–
